Measured values reported in PMC2693909 (Journal of molecular biology, 2009).

Target: Hsc70 NBD (Hsc-70-NBD) (Bos taurus, UniProt P19120)
Assay: […]-1H NMR chemical shift differences, ATP versus ADP.Pi state
Assay type: binding
Conditions: neutral aqueous solution

Sequence of Hsc70 NBD (Hsc-70-NBD) (P19120 1-383 limits assumed): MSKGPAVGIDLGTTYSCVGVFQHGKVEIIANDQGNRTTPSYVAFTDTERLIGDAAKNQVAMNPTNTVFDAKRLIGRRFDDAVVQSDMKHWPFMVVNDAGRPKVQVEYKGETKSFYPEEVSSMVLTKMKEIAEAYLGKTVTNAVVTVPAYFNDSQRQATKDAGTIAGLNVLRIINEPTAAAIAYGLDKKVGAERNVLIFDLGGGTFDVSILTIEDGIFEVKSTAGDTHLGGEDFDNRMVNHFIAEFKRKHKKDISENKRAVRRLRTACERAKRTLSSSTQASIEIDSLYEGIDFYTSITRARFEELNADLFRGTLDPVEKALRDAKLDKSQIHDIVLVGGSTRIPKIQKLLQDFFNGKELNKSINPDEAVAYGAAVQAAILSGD

Compound	15N-1H NMR chemical shift differences, ATP versus ADP.Pi state (ADP.Pi state)	15N-1H NMR chemical shift differences, ATP versus ADP.Pi state (ATP state)
Nc1ncnc2c1ncn2[C@@H]1O[C@H](COP(=O)(O)OP(=O)(O)O)[C@@H](O)[C@H]1O [ADP]	NMR spectra of the isolated NBD of Hsc70 between the ADP.Pi and ATP state	
Nc1ncnc2c1ncn2[C@@H]1O[C@H](COP(=O)(O)OP(=O)(O)OP(=O)(O)O)[C@@H](O)[C@H]1O [ATP]		NMR spectra of the isolated NBD of Hsc70 between the ADP.Pi and ATP state
